Results from patent US20160374944A1, “COMPOSITIONS AND METHODS FOR TREATING AND PREVENTING CANCER BY TARGETING AND INHIBITING CANCER STEM CELLS” (priority 2011, published 2016).

Legend:
Pancreatic CSCs = assay: Transwell migration assay; type: cell-based, human; settings: for migration: EGCG 0-60 μM with or without quercetin 20 μM, 48 hrs
Description: (A) Pancreatic CSCs were treated with EGCG (0-60 μM) for 48 h. At the end of incubation period, the expression of Snail, ZEB1 and Slug was measured by q-RT-PCR. […] (B) Transwell migration assay. Pancreatic CSCs were plated in the top chamber of the transwell and treated with EGCG (0-60 μM) for 24 h. Cells migrated to the lower chambered were fixed with methanol, stained with crystal violet and counted. […] (C) Matrigel invasion assay. CSCs were plated onto the Matrigel-coated membrane in the top chamber of the transwell and treated with EGCG (0-60 μM) for 48 h. Cells invaded to the lower chambered were fixed with methanol, stained with crystal violet and counted. […] (D) Effects of EGCG on TCF-1/LEF activity. Pancreatic CSCs were transduced with TCF/LEF responsive GFP/firefly luciferase viral particles (pGreen Fire1-Gli with EF1, System Biosciences). Transduced CSCs were treated with EGCG (0-60) for 48 h and the GFP fluorescence was measured. […] FIG. 42A and FIG. 42B show graphs showing quercetin synergizes with EGCG to inhibit self-renewal capacity, invasion, migration, and TCF/LEF and Gli transcriptional activities in pancreatic CSCs. (A) Effects of EGCG and quercetin on spheroid and colony formation. Upper Panel, uercetin synergizes with EGCG to inhibit spheroid's cell viability. CSCs were seeded in suspension and treated with EGCG (0-60 μM) with or without quercetin (20 μM) for 7 days. At the end of incubation period, all the spheroids were collected and resuspended. Cell viability was measured by trypan blue assay. […] Lower panel, uercetin synergizes with EGCG to inhibit colony formation. […] At the end of incubation period, colonies were counted. […] Cells invaded to the lower chambered were fixed with methanol, stained with crystal violet and counted. […] Cells migrated to the lower chambered were fixed with methanol, stained with crystal violet and counted. […] Apoptosis was measured by TUNEL assay. […] Transduced CSCs were treated with EGCG (40 μM) with or without quercetin (20 μM) for 48 hrs and the luciferase activity was measured.

Prostate CSCs [1] = assay: caspase-3 activity; type: cell-based, human; settings: 24 h; embelin 0-6 μM, rottlerin 0-2 μM
Description: In particular, embelin is shown to inhibit spheroid and colony formation, and induce caspase-3 and apoptosis. (A) Prostate CSCs were grown in CSC medium and treated with embelin (0-6 μM) for 7 days to obtain primary spheroids. At the end of incubation period, spheroids were collected, reseeded and treated with embelin for another week to obtain secondary spheroids. Cell viability in spheroids was measured by trypan blue assay at the end of 7 and 14 days. […] (B) Prostate CSCs were seeded in soft agar and treated with embelin (0-6 μM) for 21 days. […] (C and D) Activation of caspase-3 and induction of apoptosis is shown.
(A) Prostate CSCs were grown in CSC medium and treated with rottlerin (0-2 μM) for 7 days to obtain primary spheroids. At the end of incubation period, spheroids were collected, reseeded and treated with rottlerin for another week to obtain secondary spheroids. Cell viability in spheroids was measured by trypan blue assay at the end of 7 and 14 days. […] (B) Prostate CSCs were seeded in soft agar and treated with rottlerin (0-2 μM) for 21 days. […] (C and D) Activation of caspase-3 and induction of apoptosis.

Prostate CSCs [2] = assay: gene expression by qRT-PCR; type: cell-based, human; settings: 24 h
Description: FIG. 15 is a graph showing that rottlerin inhibits the expression of survivin, XIAP, Bcl-2 and Bcl-XL in prostate CSCs. Prostate CSCs were treated with rottlerin (0-2 μM) for 24 h, and the expression of survivin, XIAP, Bcl-2 and Bcl-XL was measured by the q-RT-PCR. […] Data were normalized with GAPDH.
FIG. 16 is a graph showing the regulation by rottlerin of cMyc, Nanog, Oct3/4 and Sox-2 in prostate CSCs. Prostate CSCs were treated with rottlerin (0-1 μM) for 24 h. The expression of cMyc, Nanog, Oct3/4 and Sox-2 was measured by qRT-PCR. […] Data were normalized with GAPDH.
FIG. 17 graphs showing the regulation of Shh, Notch and TGFβ pathways by rottlerin. […] The expression of Patched-1, Patched-2, SMO, Gli1 and Gli2 was measured by qRT-PCR. […] Data were normalized with GAPDH. (D) Prostate CSCs were treated with rottlerin (0-1 μM) for 24 h. The expression of Notch1, Notch3 and JAG1 was measured by qRT-PCR. (E) TCF/LEF-1, Gli and Notch reporter activities. Prostate CSCs were transduced with a mixture of TCF/LEF1-, Gli-, or Notch-responsive firefly luciferase construct and Renilla luciferase construct (40:1) along with lipofectamine. After transduction, medium was changed and CSCs were treated with rottlerin (0-2 μM) for 24 h. […] (F) Immunofluorescence analysis of Gli1 and Gli2 expression in prostate CSCs. Green=Gli1 or Gli2; red=nucleus.

Brain CSCs = assay: cell viability by XTT assay; type: cell-based; settings: 3 days; 0-20 μM
Description: (A-B) Brain CSCs were treated with sulforaphane (0-20 μM), and honokiol (0-20 μM) for 3 days, and cell viability was measured by XTT assay.

[3] = tested on: pancreatic cancer stem cells

Compound: O=C(O[C@@H]1Cc2c(O)cc(O)cc2O[C@@H]1c1cc(O)c(O)c(O)c1)c1cc(O)c(O)c(O)c1 [EGCG, epigallocatechin gallate]
- migration (Pancreatic CSCs): inhibited cell viability in spheroids, colony formation, migration and invasion by CSCs in a dose-dependent manner
- cell migration (Pancreatic CSCs; EGCG 0-60 μM, 24 h): inhibited

Compound: O=c1c(O)c(-c2ccc(O)c(O)c2)oc2cc(O)cc(O)c12 [quercetin]
- migration (Pancreatic CSCs): effective alone

Compound: CC(=O)c1c(O)c(C)c(O)c(Cc2c(O)c3c(c(C(=O)/C=C/c4ccccc4)c2O)OC(C)(C)C=C3)c1O [rottlerin]
- caspase-3 activity (Prostate CSCs [1]): induces
- expression of Bcl-2 (Prostate CSCs [2]; normalized with GAPDH): inhibited the expression
- expression of Bcl-XL (Prostate CSCs [2]; normalized with GAPDH): inhibited the expression
- expression of Gli1 (Prostate CSCs [2]; normalized with GAPDH): inhibited the expression
- expression of Gli2 (Prostate CSCs [2]; normalized with GAPDH): inhibited the expression
- expression of Nanog (Prostate CSCs [2]; normalized with GAPDH): inhibited the expression
- expression of Oct3/4 (Prostate CSCs [2]; normalized with GAPDH): inhibited the expression
- expression of Patched-1 (Prostate CSCs [2]; normalized with GAPDH): inhibited the expression
- expression of Patched-2 (Prostate CSCs [2]; normalized with GAPDH): inhibited the expression
- expression of SMO (Prostate CSCs [2]; normalized with GAPDH): inhibited the expression
- expression of Sox-2 (Prostate CSCs [2]; normalized with GAPDH): inhibited the expression
- expression of XIAP (Prostate CSCs [2]; normalized with GAPDH): inhibited the expression
- expression of cMyc (Prostate CSCs [2]; normalized with GAPDH): inhibited the expression
- expression of survivin (Prostate CSCs [2]; normalized with GAPDH): inhibited the expression
- expression of JAG1 (Prostate CSCs [2]; rottlerin 0-1 μM): inhibited the expression
- expression of Notch1 (Prostate CSCs [2]; rottlerin 0-1 μM): inhibited the expression
- expression of Notch3 (Prostate CSCs [2]; rottlerin 0-1 μM): inhibited the expression

Compound: C[S+]([O-])CCCCN=C=S (stereo not shown) [sulforaphane]
- cell viability (Brain CSCs): inhibit cell viability
- growth of pancreatic cancer stem cells [3]: inhibits the growth
